According to patent US20250197393A1, “INTEGRIN INHIBITOR AND USES THEREOF” (Pliant Therapeutics, Inc., priority 2023, published 2025):
In brackets after ≈: the same amount, converted by molar mass.

Columns and labels:
Compression study = assay type: physicochemical; settings: 5 minutes; for XRPD after compression: hydraulic press
Procedure: About 20 mg of (S)-4-((2-methoxyethyl)(4-(5,6,7,8-tetrahydro-1,8-naphthyridin-2-yl)butyl)amino)-2-(quinazolin-4-ylamino)butanoic acid L-tartaric acid cocrystal Pattern A was compressed for 5 minutes under 2 MPa, 5 MPa and 10 MPa with a hydraulic press. Potential form change and degree of crystallinity were evaluated by XRPD.

[1] = Solubility at 37° C. in aqueous and biorelevant media; assay type: physicochemical; settings: for solubility at 2 h / solubility at 24 h: 37 °C, thermodynamic from solid; for solubility at 2 h / solubility at 24 h / Solubility (mg/ mL) 2 h / Solubility (mg/ mL) 24 h: target 250 mg/mL (in free form); for pH of supernatant at 24 h / Solubility (mg/ mL) 2 h / Solubility (mg/ mL) 24 h: listed as L-Tartaric acid cocrystal Pattern A, hydrate
Procedure: To prepare the samples of (S)-4-((2-methoxyethyl)(4-(5,6,7,8-tetrahydro-1,8-naphthyridin-2-yl)butyl)amino)-2-(quinazolin-4-ylamino)butanoic acid L-tartaric acid cocrystal Pattern A, 80.6 mg was weighed into a 2 mL glass vial. Next, 0.18 mL of solubility medium was added. The salt amount used is equivalent to 45 mg of the amorphous free form. Obtained suspensions/solutions were stirred at 37° C. at 400 rpm and sampled at 2 h and at 24 h. The samples were centrifuged at 37° C. at 14,000 rpm for 5 min. Supernatants were analyzed by HPLC and pH meter for solubility and pH value, respectively. […]

[2] = FaSSGF (fasted state simulated gastric fluid), pH 1.6, fassgf or other biorelevant, FaSSGF, pH 1.6, 37° C.
[3] = FeSSIF-v1 (fed state simulated intestinal fluid), pH 5, fessif, FeSSIF-v1, pH 5.0, 37° C.
[4] = pH 1.2 HCl buffer, pH 1.2, simulated gastric fluid
[5] = pH 4.5 acetate buffer (50 mM), pH 4.5, aqueous buffer
[6] = pH 6.8 phosphate buffer (50 mM), 37° C.

For COCCN(CCCCc1ccc2c(n1)NCCC2)CC[C@H](Nc1ncnc2ccccc12)C(=O)O [Pattern A, (S)-4-((2-methoxyethyl)(4-(5,6,7,8-tetrahydro-1,8-naphthyridin-2-yl)butyl)amino)-2-(quinazolin-4-ylamino)butanoic acid], the “degree of crystallinity after compression (XRPD)” value (Compression study; 2 MPa, 5 MPa and 10 MPa) was “slight decrease in crystallinity”, the “form change after compression (XRPD)” value (Compression study; 2 MPa, 5 MPa and 10 MPa) was “no form change” and the XRPD after compression (Compression study; 2 MPa) was “Pattern A”. The XRPD after compression (Compression study; 5 MPa) was “Pattern A”, the XRPD after compression (Compression study; 10 MPa) was “Pattern A” and the solubility at 2 h [1, 2] was 206 mg/mL (≈ 419 mM). The solubility at 24 h [1, 2] was 224 mg/mL (≈ 455 mM), the “pH of supernatant at 24 h” value ([1]; FaSSGF, pH 1.6, 37° C.) was “(1.6)” and the “Solubility (mg/ mL) 2 h” value ([1]; FaSSIF-v1, pH 6.5, 37° C.) was 84.1 mg/mL (≈ 171 mM). The “Solubility (mg/ mL) 24 h” value ([1]; FaSSIF-v1, pH 6.5, 37° C.) was 63.2 mg/mL (≈ 128 mM), the “pH of supernatant at 24 h” value ([1]; FaSSIF-v1, pH 6.5, 37° C.) was “(6.6)” and the solubility at 2 h [1, 3] was 203 mg/mL (≈ 413 mM). The solubility at 24 h [1, 3] was 217 mg/mL (≈ 440 mM), the “pH of supernatant at 24 h” value ([1]; FeSSIF-v1, pH 5.0, 37° C.) was “(5.0)” and the “pH of supernatant at 24 h” value ([1]; Water, 37° C.) was “(3.2)”. For the same molecule, the “pH of supernatant at 24 h” value ([1]; pH 1.2 HCl buffer, 37° C.) was “(1.4)”, the solubility at 2 h [1, 4] was 215 mg/mL (≈ 436 mM) and the solubility at 24 h [1, 4] was 222 mg/mL (≈ 451 mM). For the same molecule, the “pH of supernatant at 24 h” value ([1]; pH 4.5 acetate buffer (50 mM), 37° C.) was “(4.4)”, the solubility at 2 h [1, 5] was 214 mg/mL (≈ 435 mM) and the solubility at 24 h [1, 5] was 220 mg/mL (≈ 448 mM). For the same molecule, the “Solubility (mg/ mL) 2 h” value [1, 6] was 28.4 mg/mL (≈ 57.7 mM), the “Solubility (mg/ mL) 24 h” value [1, 6] was 56.4 mg/mL (≈ 114 mM) and the “pH of supernatant at 24 h” value [1, 6] was “(6.8)”. It also gave a solubility at 2 h ([1]; water) of 207 mg/mL (≈ 421 mM) and a solubility at 24 h ([1]; water) of 218 mg/mL (≈ 442 mM).
